Measured values published in article PMC7717579, “Phosphoregulation of HORMA domain protein HIM-3 promotes asymmetric synaptonemal complex disassembly in meiotic prophase in Caenorhabditis elegans” (PLoS Genetics, 2020).
Non-standard residues stand in square brackets, D forms with d. Residues, ends and D or L forms follow the SMILES beside them. *: point of attachment. FITC = O=C1OC2(c3ccc(O)cc3Oc3cc(O)ccc32)c2ccc(NC(=S)*)cc21; pY = N[C@@H](Cc1ccc(OP(=O)(O)O)cc1)C(=O)O; pS = N[C@@H](COP(=O)(O)O)C(=O)O; Ahx = NCCCCCC(=O)O

Molecular target: T1, HTP-2 protein (full length) (Caenorhabditis elegans, UniProt Q95XC8)
T1 sequence (Q95XC8 1-352): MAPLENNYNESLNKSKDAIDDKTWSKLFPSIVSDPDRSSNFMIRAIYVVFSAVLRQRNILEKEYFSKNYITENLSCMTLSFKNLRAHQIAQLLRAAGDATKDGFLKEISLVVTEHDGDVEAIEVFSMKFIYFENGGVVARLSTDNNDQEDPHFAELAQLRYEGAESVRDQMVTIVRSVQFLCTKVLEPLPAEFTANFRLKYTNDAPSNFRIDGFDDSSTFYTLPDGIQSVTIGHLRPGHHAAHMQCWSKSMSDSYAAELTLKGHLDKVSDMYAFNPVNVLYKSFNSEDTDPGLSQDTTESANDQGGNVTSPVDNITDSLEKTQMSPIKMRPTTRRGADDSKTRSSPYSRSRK
Assay: Fluorescence polarization (FP) peptide binding assay
Settings: for Kd (HTP-2 binding): FP, 50 nM FITC-tagged HIM-3 closure motif peptide, various concentrations of bacterially purified full-length HTP-2, 20 mM Tris pH 7.5, 300 mM NaCl, 10% glycerol, 1 mM DTT, 0.1% NP-40, 1 hour at room temperature, single-site binding model, triplicated measurements
Description: To understand regulation of meiotic proteins by post-translational modification, we previously carried out mass spectrometry to identify phosphorylated proteins in C. elegans adult hermaphrodites. […] We detected phosphopeptides containing Ser282 either singly or in combination with Ser274, Ser277, or Tyr279, and the most commonly-observed peptide contained doubly-phosphorylated Ser277/Ser282 (Fig 1A and S1 Table). Among the three most C-terminal phosphoresidues, which reside within the conserved closure motif, Tyr279 and Ser or Thr at position 282 are conserved features among nematode HIM-3 orthologs (Fig 1A). […] More recent studies further identified this C-terminus region containing Ser375 to be the closure motif, able to be bound by the HORMA domain of HORMAD1 itself and HORMAD2 [27, 34]. While phosphorylation at the closure motif is conserved between C. elegans HIM-3 and mouse HORMAD1 (S1 Fig), the function is not understood. Since other HORMA family proteins, HTP-1 and -2, are known to bind the HIM-3 closure motif in C. elegans, we first examined if phosphorylation affects HTP-1/2 binding to HIM-3 in vitro. A previous study has shown that both HTP-1 and -2 proteins bind unmodified HIM-3 peptides containing the closure motif in a fluorescence polarization (FP) peptide binding assay. Examination of the crystal structure resolved by the same study led us to predict that phosphorylation at Ser282 would likely interfere with HTP-1/2 binding (Fig 1B). We conducted a similar FP peptide binding assay using purified HTP-2 and fluorescently tagged HIM-3 closure motif peptides containing various modifications (Fig 1C).
Fig 1 Phosphorylation at the HIM-3 closure motif prevents HTP-1/2 binding in vitro. A, top: Schematic diagram of HIM-3, showing the HORMA domain (magenta) and phosphorylation sites identified by mass spectrometry in red. The conserved closure motif is underlined. bottom: Conservation of the Tyr and Ser/Thr, highlighted in orange, in the closure motif in eight Caenorhabditis species. B, left: Diagram of hierarchical binding of HTP-1, 2, 3 and HIM-3 from. center, diagram of possible multivalent binding modes of the axial element, based on. right, Interactions between the HIM-3 closure motif (magenta) and the HTP-2 (grey) HORMA domain shown in PDB structure 4TZL [27]. C, Fluorescence polarization peptide binding assay using bacterially purified HTP-2 protein (full length) and fluorescently tagged HIM-3 peptides with indicated phosphorylation or Ala substitution. Wild type means HIM-3 peptides with no phosphorylation. Phosphorylation at Ser282 inhibits HTP-2 binding in vitro. Error bars are calculated as the SD from triplicated measurements. […]
Fluorescein (FITC) conjugated peptides for the FP assay were synthesized by either Scrum Inc. or Eurofins Inc. as shown in S2 Table. […] For the fluorescence assay, synthesized peptides were first resuspended in DMSO, then diluted into binding buffer (20 mM Tris pH 7.5, 300 mM NaCl, 10% glycerol, 1 mM DTT, 0.1% NP-40). Reactions of 50 μl total volume containing 50 nM peptide and various concentrations of HTP-2 proteins were incubated for 1 hour at room temperature, then fluorescence polarization was measured in 384-well plates using a TECAN Infinite M1000 PRO fluorescence plate reader. Binding data were analyzed with Graphpad Prism version 6.0h for Macintosh (GraphPad Software, La Jolla California USA) using a single-site binding model.

Compound | Kd [µM] | Kd (HTP-2 binding)
CC[C@H](C)[C@H](NC(=O)CNC(=O)[C@H](CCC(N)=O)NC(=O)[C@H](C)NC(=O)[C@H](CC(C)C)NC(=O)CNC(=O)[C@H](Cc1ccc(O)cc1)NC(=O)[C@@H]1CCCN1C(=O)[C@H](CO)NC(=O)[C@H](CC(=O)O)NC(=O)[C@H](CCCNC(=N)N)NC(=O)[C@H](CO)NC(=O)[C@@H](NC(=O)[C@H](CCCNC(=N)N)NC(=O)CCCCCNC(=S)Nc1ccc2c(c1)C(=O)OC21c2ccc(O)cc2Oc2cc(O)ccc21)[C@@H](C)CC)C(=O)N[C@H](C(=O)N[C@@H](CCCCN)C(=O)O)[C@@H](C)O [S282A] ({FITC-Ahx}-RISRDSPYGLAQGITK-OH) | 11.3 | 
CC[C@H](C)[C@H](NC(=O)CNC(=O)[C@H](CCC(N)=O)NC(=O)[C@H](CO)NC(=O)[C@H](CC(C)C)NC(=O)CNC(=O)[C@H](Cc1ccc(OP(=O)(O)O)cc1)NC(=O)[C@@H]1CCCN1C(=O)[C@H](CO)NC(=O)[C@H](CC(=O)O)NC(=O)[C@H](CCCNC(=N)N)NC(=O)[C@H](CO)NC(=O)[C@@H](NC(=O)[C@H](CCCNC(=N)N)NC(=O)CCCCCNC(=S)Nc1ccc2c(c1)C(=O)OC21c2ccc(O)cc2Oc2cc(O)ccc21)[C@@H](C)CC)C(=O)N[C@H](C(=O)N[C@@H](CCCCN)C(=O)O)[C@@H](C)O [Y279phos] ({FITC-Ahx}-RISRDSP[pY]GLSQGITK-OH) | 16.1 | 
{FITC}-[Ahx]RISRDSPYGL[pS]QGITK-OH [S282phos, FITC-tagged HIM-3 closure motif peptide phosphorylated at Ser282] |  | not significant binding
CC[C@H](C)[C@H](NC(=O)CNC(=O)[C@H](CCC(N)=O)NC(=O)[C@H](CO)NC(=O)[C@H](CC(C)C)NC(=O)CNC(=O)[C@H](Cc1ccc(O)cc1)NC(=O)[C@@H]1CCCN1C(=O)[C@H](CO)NC(=O)[C@H](CC(=O)O)NC(=O)[C@H](CCCNC(=N)N)NC(=O)[C@H](CO)NC(=O)[C@@H](NC(=O)[C@H](CCCNC(=N)N)NC(=O)CCCCCNC(=S)Nc1ccc2c(c1)C(=O)OC21c2ccc(O)cc2Oc2cc(O)ccc21)[C@@H](C)CC)C(=O)N[C@H](C(=O)N[C@@H](CCCCN)C(=O)O)[C@@H](C)O [unphosphorylated peptides] ({FITC-Ahx}-RISRDSPYGLSQGITK-OH) | 5.8 | 
{FITC}-[Ahx]RISRDSP[pY]GL[pS]QGITK-OH [Y279phos_S282phos, FITC-tagged HIM-3 closure motif peptide phosphorylated at Tyr279 and Ser282] |  | not significant binding
